Active and inactive are the calls of the source. Rule as the data show it: actives have a measured Kd and inactives only a lower limit.
Legend:
[1] = biological target: TRAF2 and NCK-interacting protein kinase (Homo sapiens, UniProt Q9UKE5)
Ephrin type-A receptor 1 = biological target: T1, Ephrin type-A receptor 1 (Homo sapiens, UniProt P21709)
T1 sequence (P21709 whole entry): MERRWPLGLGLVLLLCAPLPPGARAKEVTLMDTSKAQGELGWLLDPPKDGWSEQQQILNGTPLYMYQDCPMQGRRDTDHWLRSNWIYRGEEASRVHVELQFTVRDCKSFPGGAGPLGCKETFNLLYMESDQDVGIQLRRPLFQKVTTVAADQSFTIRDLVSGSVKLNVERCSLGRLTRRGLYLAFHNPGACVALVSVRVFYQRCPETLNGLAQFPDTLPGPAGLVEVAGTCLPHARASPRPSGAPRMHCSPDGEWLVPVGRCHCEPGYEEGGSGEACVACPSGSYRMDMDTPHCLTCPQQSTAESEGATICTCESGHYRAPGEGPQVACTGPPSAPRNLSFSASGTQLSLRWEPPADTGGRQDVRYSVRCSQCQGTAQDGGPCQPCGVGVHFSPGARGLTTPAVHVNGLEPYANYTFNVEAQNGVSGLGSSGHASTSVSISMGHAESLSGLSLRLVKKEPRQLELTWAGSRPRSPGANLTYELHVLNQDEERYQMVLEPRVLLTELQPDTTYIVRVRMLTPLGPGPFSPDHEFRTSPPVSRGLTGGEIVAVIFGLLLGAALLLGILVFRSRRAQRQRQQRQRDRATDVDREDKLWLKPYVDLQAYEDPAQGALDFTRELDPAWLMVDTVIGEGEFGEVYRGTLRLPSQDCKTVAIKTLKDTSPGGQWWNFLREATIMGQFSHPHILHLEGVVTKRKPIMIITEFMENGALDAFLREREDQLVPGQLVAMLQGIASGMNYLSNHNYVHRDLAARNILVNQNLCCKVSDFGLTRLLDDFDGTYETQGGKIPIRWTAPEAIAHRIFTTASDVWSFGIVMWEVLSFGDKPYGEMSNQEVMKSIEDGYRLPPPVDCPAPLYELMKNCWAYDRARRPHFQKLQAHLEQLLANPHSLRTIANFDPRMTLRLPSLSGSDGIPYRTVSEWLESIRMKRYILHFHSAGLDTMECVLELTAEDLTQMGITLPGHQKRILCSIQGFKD

[2] = biological target: Glycogen synthase kinase-3 beta (Homo sapiens, UniProt P49841)
Chain of Glycogen synthase kinase-3 beta (P49841 whole entry): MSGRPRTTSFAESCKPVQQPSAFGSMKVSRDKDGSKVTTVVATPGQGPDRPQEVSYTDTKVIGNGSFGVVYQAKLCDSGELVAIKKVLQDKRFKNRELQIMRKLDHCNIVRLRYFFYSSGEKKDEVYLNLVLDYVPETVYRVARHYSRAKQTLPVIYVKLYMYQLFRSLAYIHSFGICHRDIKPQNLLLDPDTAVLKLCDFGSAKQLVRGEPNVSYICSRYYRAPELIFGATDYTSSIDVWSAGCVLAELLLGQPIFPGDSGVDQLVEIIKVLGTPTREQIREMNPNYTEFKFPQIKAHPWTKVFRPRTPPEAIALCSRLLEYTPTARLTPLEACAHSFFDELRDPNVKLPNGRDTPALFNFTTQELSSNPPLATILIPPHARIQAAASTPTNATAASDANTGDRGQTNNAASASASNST

Ephrin type-B receptor 4 = biological target: T2, Ephrin type-B receptor 4 (Homo sapiens, UniProt P54760)
T2 sequence (P54760 whole entry): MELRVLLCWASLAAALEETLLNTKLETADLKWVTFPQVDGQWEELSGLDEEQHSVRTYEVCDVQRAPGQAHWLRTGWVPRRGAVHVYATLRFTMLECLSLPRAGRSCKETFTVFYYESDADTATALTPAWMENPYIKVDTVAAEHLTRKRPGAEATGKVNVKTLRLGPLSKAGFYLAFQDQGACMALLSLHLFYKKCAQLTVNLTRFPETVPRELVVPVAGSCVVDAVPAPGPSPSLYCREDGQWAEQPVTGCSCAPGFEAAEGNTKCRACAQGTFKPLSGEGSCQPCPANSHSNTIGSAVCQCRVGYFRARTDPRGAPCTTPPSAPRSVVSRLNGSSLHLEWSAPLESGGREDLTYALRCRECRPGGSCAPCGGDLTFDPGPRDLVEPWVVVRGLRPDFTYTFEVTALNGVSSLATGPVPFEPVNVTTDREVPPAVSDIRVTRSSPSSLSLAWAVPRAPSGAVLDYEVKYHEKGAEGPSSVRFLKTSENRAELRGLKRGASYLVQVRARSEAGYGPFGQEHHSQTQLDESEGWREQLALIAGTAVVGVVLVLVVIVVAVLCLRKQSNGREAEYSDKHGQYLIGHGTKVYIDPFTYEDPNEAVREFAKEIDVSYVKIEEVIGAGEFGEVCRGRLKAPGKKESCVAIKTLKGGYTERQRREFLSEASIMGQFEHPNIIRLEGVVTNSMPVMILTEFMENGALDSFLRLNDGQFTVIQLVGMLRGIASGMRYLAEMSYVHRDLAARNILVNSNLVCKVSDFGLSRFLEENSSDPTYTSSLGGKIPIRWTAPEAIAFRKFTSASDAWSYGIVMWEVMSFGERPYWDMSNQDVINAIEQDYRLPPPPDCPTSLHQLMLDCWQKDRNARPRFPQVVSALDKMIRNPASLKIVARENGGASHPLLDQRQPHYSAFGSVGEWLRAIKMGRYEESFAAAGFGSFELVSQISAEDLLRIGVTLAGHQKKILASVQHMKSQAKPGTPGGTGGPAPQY

[3] = biological target: STE20-like serine/threonine-protein kinase (Homo sapiens, UniProt Q9H2G2)
Chain of STE20-like serine/threonine-protein kinase (Q9H2G2 whole entry): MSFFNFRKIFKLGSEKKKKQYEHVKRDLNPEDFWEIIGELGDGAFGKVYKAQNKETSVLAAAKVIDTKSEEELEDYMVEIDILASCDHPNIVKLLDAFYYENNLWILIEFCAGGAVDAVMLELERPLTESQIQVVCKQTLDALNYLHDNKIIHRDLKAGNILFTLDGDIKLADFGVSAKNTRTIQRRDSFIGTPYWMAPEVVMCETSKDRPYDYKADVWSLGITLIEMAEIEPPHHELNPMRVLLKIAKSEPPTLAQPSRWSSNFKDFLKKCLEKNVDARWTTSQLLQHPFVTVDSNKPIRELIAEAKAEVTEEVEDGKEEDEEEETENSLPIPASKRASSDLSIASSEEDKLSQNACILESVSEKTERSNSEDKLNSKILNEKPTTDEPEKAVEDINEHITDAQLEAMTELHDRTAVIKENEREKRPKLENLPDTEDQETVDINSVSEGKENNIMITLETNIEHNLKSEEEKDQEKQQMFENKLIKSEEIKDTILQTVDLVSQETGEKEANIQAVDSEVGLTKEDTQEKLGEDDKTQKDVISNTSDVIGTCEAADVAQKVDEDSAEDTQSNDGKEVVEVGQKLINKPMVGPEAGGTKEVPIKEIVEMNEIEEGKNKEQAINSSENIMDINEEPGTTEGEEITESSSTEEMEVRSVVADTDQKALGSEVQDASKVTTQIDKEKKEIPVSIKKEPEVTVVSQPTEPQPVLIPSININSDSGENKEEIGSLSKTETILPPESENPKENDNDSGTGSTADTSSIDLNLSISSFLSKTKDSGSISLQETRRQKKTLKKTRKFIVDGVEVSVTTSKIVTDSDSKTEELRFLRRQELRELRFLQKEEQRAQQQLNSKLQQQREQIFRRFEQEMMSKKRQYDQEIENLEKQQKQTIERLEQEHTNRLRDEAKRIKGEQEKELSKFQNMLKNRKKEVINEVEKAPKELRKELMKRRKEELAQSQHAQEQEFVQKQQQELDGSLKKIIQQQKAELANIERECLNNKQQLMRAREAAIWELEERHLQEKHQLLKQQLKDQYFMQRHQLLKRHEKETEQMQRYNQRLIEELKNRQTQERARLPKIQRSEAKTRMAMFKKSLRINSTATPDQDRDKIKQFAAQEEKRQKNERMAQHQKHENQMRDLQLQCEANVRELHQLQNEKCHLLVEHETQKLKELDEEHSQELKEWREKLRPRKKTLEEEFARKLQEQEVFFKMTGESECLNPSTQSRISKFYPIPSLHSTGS

[4] = biological target: Mitogen-activated protein kinase 8 (Homo sapiens, UniProt P45983)
Chain of Mitogen-activated protein kinase 8 (P45983 whole entry): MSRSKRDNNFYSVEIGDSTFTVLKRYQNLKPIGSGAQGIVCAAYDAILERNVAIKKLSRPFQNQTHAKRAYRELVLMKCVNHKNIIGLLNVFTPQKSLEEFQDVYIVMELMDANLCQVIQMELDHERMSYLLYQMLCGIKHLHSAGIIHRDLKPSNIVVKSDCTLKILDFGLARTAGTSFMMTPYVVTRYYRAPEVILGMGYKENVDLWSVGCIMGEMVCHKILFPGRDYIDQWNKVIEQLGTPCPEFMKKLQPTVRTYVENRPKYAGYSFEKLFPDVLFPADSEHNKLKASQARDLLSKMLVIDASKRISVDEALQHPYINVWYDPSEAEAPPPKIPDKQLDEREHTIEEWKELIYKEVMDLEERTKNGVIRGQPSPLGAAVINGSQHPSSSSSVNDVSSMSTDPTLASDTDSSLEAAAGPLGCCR

Activin receptor type-1B = biological target: T3, Activin receptor type-1B (Homo sapiens, UniProt P36896)
T3 sequence (P36896 whole entry): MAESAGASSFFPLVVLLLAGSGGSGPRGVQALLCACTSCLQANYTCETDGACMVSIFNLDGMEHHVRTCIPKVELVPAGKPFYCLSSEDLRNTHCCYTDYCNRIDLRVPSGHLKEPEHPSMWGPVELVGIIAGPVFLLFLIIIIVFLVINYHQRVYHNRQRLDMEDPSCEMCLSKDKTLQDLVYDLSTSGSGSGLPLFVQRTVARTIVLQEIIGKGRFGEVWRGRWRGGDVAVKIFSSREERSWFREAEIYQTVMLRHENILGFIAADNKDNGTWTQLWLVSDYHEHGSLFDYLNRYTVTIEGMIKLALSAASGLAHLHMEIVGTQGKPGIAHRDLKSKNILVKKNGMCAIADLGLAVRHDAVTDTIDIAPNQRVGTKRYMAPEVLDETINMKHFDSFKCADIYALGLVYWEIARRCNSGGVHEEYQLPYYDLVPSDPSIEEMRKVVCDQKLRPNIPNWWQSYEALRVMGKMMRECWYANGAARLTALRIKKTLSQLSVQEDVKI
Also: in the data inactive means no Kd found up to 30 µM.

Chain of TRAF2 and NCK-interacting protein kinase (Q9UKE5 whole entry): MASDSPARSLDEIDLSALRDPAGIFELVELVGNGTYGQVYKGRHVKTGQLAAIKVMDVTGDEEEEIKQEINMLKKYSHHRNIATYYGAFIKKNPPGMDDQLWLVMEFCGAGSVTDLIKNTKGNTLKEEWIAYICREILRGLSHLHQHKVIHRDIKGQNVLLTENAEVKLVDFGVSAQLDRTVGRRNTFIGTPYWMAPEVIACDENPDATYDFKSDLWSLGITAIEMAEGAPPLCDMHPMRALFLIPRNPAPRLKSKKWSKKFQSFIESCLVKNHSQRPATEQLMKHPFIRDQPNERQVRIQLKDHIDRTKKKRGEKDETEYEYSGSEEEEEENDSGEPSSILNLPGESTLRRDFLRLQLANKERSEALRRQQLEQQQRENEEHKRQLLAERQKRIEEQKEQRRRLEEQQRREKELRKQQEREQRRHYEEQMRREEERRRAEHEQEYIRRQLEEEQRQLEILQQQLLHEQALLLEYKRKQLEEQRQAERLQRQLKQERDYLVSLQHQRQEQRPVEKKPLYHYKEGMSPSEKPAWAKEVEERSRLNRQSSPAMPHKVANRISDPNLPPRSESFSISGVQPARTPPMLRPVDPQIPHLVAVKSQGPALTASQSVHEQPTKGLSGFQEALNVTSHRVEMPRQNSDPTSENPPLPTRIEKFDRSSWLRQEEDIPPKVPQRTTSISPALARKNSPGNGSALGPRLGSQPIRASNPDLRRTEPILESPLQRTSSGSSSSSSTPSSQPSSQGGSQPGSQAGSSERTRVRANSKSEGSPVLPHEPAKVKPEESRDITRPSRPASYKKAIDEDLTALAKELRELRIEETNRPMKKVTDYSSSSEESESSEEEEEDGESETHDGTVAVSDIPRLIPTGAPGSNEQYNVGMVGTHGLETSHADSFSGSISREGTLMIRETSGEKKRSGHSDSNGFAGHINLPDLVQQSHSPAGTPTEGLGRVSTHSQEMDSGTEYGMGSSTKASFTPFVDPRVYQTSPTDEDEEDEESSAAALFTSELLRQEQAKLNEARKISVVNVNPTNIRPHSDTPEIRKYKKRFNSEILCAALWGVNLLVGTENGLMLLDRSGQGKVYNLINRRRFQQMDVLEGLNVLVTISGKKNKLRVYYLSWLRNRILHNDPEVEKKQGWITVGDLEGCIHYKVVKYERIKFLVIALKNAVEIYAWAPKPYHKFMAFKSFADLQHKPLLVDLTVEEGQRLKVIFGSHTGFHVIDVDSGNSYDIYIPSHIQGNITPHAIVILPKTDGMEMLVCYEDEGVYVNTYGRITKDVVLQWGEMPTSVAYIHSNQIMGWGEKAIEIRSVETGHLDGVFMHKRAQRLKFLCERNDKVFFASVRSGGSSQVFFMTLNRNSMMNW

| SMILES | Kd [1] | Kd (Ephrin type-A receptor 1) | Kd [2] | Kd (Ephrin type-B receptor 4) | Kd [3] | Kd [4] | Kd (Activin receptor type-1B) |
| --- | --- | --- | --- | --- | --- | --- | --- |
| C[C@@H](NC(=O)c1ncnc(N)c1Cl)c1ncc(C(=O)Nc2cc(C(F)(F)F)c(Cl)cn2)s1 [TOVORAFENIB] | > 30 µM (inactive) | 1.07 µM | > 30 µM (inactive) | 9.43 µM (active) | > 30 µM (inactive) | > 30 µM (inactive) | > 30 µM (inactive) |
| Cn1cc(-c2cnn3c(N)c(Br)c([C@@H]4CCCNC4)nc23)cn1 [SCH-900776] | > 30 µM (inactive) | > 30 µM (inactive) | > 30 µM (inactive) | > 30 µM (inactive) | 2.08 µM (active) | > 30 µM (inactive) | > 30 µM (inactive) |
| CCn1c(C(=O)N(C2CC2)C2CC2)cc2c3c(ncn3C)c(Nc3cc(C)n(C)n3)nc21 [BMS-911543] | > 30 µM (inactive) | > 30 µM (inactive) | > 30 µM (inactive) | > 30 µM (inactive) | > 30 µM (inactive) | > 30 µM (inactive) | > 30 µM (inactive) |
| FC(F)(F)c1ccc(/C=C/c2nc(COc3ccc(CCCCn4ccnn4)cc3)co2)cc1 [MUBRITINIB] | > 30 µM (inactive) | > 30 µM (inactive) | > 30 µM (inactive) | > 30 µM (inactive) | > 30 µM (inactive) | > 30 µM (inactive) | > 30 µM (inactive) |

Reference: ChEMBL document CHEMBL3991601, “The target landscape of clinical kinase drugs” (Science, 2017)
